For this test, the system named is serum cholesterol and serum triglyceride. Nature of the test: Hypolipidemic activity of 2,3-dihydrophthalazine-1,4-diones in normal male mice (Example 11, Table II). Conditions: Mus musculus, ip, CF1 male mice, 20 mg/kg/day intraperitoneally. It is filed as in vivo, CF1 male mice. Here is the method:
Hypolipidemic Activity of 2,3-Dihydrophthalazine-1,4-Diones in Normal Male Mice
Each of the prepared compounds was administered intraperitoneally, in a dosage of 20 milligrams per kilogram of body weight per day, to a group of six CF1 male mice, each weighing approximately 25 grams, for 16 days. On Days 9 and 16 blood was obtained from each of the tested mice by tail vein bleeding. The blood serum so obtained was separated by centrifugation for three minutes. […] Serum triglyceride levels were obtained on Day 16 by use of the Bio-Dynamics/bm Triglyceride Kit.
In addition to the above-described treated mice, an untreated control group of six mice were similarly tested on Days 9 and 16 to determine their serum cholesterol and serum triglyceride blood levels.

Setting [1] is: 216 h, Day 9, read-out: Serum Cholesterol Day 9, percent control ± standard deviation.
The mark [2] stands for this setting: 384 h, Day 16, read-out: Serum Cholesterol Day 16, percent control ± standard deviation.
The mark [3] stands for this setting: 384 h, Day 16, read-out: Serum Triglyceride Day 16, percent control ± standard deviation.

Like-named read-outs stand apart in the source and are kept apart here.

Consider `Cn1nc(O)c2ccccc2c1=O` [Compound 2], for which the response vs control in vivo at 20 mg/kg/day is, setting by setting: under setting [1], 72 ± 5%; under setting [2], 77 ± 3%; under setting [3], 66 ± 4%.
On to `COc1nn(C)c(=O)c2ccccc12` [Compound 3, 2-Methyl-4-Methoxyphthalazine-1(2H)-One], for which the response vs control in vivo at 20 mg/kg/day worked out at 84 ± 6% under setting [1], 81 ± 5% under setting [2] and 64 ± 5% under setting [3].
The corresponding values for `CCn1[nH]c(=O)c2ccccc2c1=O` [Compound 4, 2-Ethyl-2,3-Dihydrophthalazine-1,4-Dione] are 71 ± 7%, 58 ± 5% and 59 ± 4%.
Turning to `CCOc1nn(CC)c(=O)c2ccccc12` [Compound 5], the response vs control in vivo at 20 mg/kg/day is 77 ± 5% under setting [1], 76 ± 4% under setting [2] and 57 ± 3% under setting [3].
On the same counts, the results for `CCCn1[nH]c(=O)c2ccccc2c1=O` [Compound 6, 2-n-propyl-2,3-dihydrophthalazine-1,4-dione] are 77 ± 6%, 68 ± 5% and 62 ± 2%.
On to `CCCOc1nn(CCC)c(=O)c2ccccc12` [Compound 7], for which the response vs control in vivo at 20 mg/kg/day runs as follows: under setting [1], 68 ± 3%; under setting [2], 69 ± 5%; under setting [3], 69 ± 2%.
In the case of `CCCCn1[nH]c(=O)c2ccccc2c1=O` [Compound 8, 2-n-butyl-2,3-dihydrophthalazine-1,4-dione], the response vs control in vivo at 20 mg/kg/day by setting is: under setting [1], 59 ± 2%; under setting [2], 58 ± 3%; under setting [3], 73 ± 4%.
On the same counts, the results for `CCCCOc1nn(CCCC)c(=O)c2ccccc12` [Compound 9] are 65 ± 4%, 61 ± 3% and 66 ± 3%.
Regarding `CCCCCn1nc(O)c2ccccc2c1=O` [Compound 10], the response vs control in vivo at 20 mg/kg/day was 74 ± 3% under setting [1], 71 ± 5% under setting [2] and 55 ± 4% under setting [3].
As for `CCCCCOc1nn(CCCCC)c(=O)c2ccccc12` [Compound 11], the response vs control in vivo at 20 mg/kg/day under setting [1] came out at 86 ± 6%, the response vs control in vivo at 20 mg/kg/day under setting [2] amounted to 63 ± 4% and the response vs control in vivo at 20 mg/kg/day under setting [3] amounted to 59 ± 3%.
For `O=c1[nH][nH]c(=O)c2c(Cl)cccc12` [Compound 12, 5-Chloro-2,3-Dihydrophthalazine-1,4-Dione], the response vs control in vivo at 20 mg/kg/day under setting [1] turned out to be 72 ± 5%, the response vs control in vivo at 20 mg/kg/day under setting [2] stood at 69 ± 4% and the response vs control in vivo at 20 mg/kg/day under setting [3] is 86 ± 5%.
The corresponding values for `O=c1[nH]nc(O)c2cc(Cl)ccc12` [Compound 13] are 72 ± 4%, 64 ± 5% and 65 ± 4%.
For the compound `Cc1cccc2c(=O)[nH]nc(O)c12` [Compound 14], the response vs control in vivo at 20 mg/kg/day was 80 ± 4% under setting [1], 75 ± 3% under setting [2] and 73 ± 3% under setting [3].
The corresponding values for `Cc1ccc2c(=O)[nH][nH]c(=O)c2c1` [Compound 15, 6-methyl-2,3-dihydrophthalazine-1,4-dione] are 66 ± 8%, 55 ± 4% and 54 ± 4%.
The corresponding values for `COc1cccc2c(=O)[nH]nc(O)c12` [Compound 16] are 82 ± 5%, 78 ± 3% and 81 ± 4%.
The corresponding values for `COc1ccc2c(=O)[nH]nc(O)c2c1` [Compound 17] are 77 ± 5%, 76 ± 4% and 69 ± 3%.

The values above are taken from patent US4861778A, “2,3-dihydrophthalazine-1,4-diones” (priority 1986, dated 1989).
